{"source": "patent US20230212571A1", "about": "“COMPOSITIONS AND METHODS FOR DELIVERING POLYNUCLEOTIDES” (NeOnc Technologies, Inc., priority 2020, published 2023)", "key": {"BEC": {"system": "BEC", "assay": "RT-qPCR mRNA expression in control BEC", "type": "cell-based, human", "description": "Human surgical specimens were obtained following written informed consent from patients in accordance with Declaration of Helsinki guidelines and the Institutional Review Board (HS-04B053), at Keck School of Medicine, USC. AVM-BECs were isolated from brain tissues of patients who underwent microsurgical AVM resection. Control BECs were isolated from the structurally normal […] of patients who underwent temporal lobectomy for intractable epilepsy. Endothelial cell (EC) isolation and culture were described^5,9. (Stapleton C J, Armstrong D L, Zidovetzki R, Liu C Y, Giannotta S L, Hofman F M. Thrombospondin-1 modulates the angiogenic phenotype of human cerebral arteriovenous malformation endothelial cells. Neurosurgery. 2011; 68(5):1342-1353) (Ferreira R, Santos T, Amar A, et al. Argonaute-2 promotes miR-18a entry in human brain endothelial cells. J Am Heart Assoc. 2014; 3(3):e000968) ECs were only used between passages 3-5. Experiments were performed under shear flow conditions (12 dyn/cm^2) to reproduce arterial flow^6. (Ferreira R, Santos T, Amar A, et al. MicroRNA-18a improves human cerebral arteriovenous malformation endothelial cell function. Stroke. 2014; 45(1):293-297). For hypoxic experiments, cells were cultured in a Galaxy 48R (Eppendorf) incubator at 3% O2. MicroRNAs were co-administered with Ago-2 to increase the cellular uptake of miR-18a^9 (Ferreira R, Santos T, Amar A, et al. Argonaute-2 promotes miR-18a entry in human brain endothelial cells. J Am Heart Assoc. 2014; 3(3):e000968) (FIG. 9). Methods regarding cell treatments and transfections were included in Data.\nMiR-18a (hsa-miR-18a-5p, 40 nM, Dharmacon) or a scramble microRNA (40 nM, Dharmacon) in nuclease-free water was added with argonaute 2 (Ago-2, 0.4 nM, Abcam) as the microRNA carrier and stabilizer^9. (Ferreira R, Santos T, Amar A, et al. Argonaute-2 promotes miR-18a entry in human brain endothelial cells. J Am Heart Assoc. 2014; 3(3):e000968). No transfection reagent was used with miR-18a or scramble microRNA treatments. Recombinant human TSP-1 (R&D Systems) stock solution was prepared in PBS and further diluted in culture medium to be used at a final concentration of 1000 ng/mL. Cells were treated during 24 h for mRNA and 48 h for protein expression studies. NEO100 (NeOnc Technologies) stock was prepared in DMSO and used immediately or stored at −20° C.\nThe extraction and analysis of total mRNA and microRNAs were described^9,13. […] For mRNA studies, 02-Microglobulin (B2M) was measured for sample normalization. […]"}, "[1]": {"system": "Mgp^−/− mouse model of AVM", "assay": "Organ histology and complete blood count", "type": "in vivo", "details": "Mgp^−/− mice, IN 2-weeks", "procedure": "In vivo efficacy studies were performed using 3-week-old Mgp^+/- C57BL/6 mice^16,17 (Yao Y, Jumabay M, Wang A, Boström K I. Matrix Gla protein deficiency causes arteriovenous malformations in mice. J Clin Invest. 2011; 121(8):2993-3004) (Yao Y, Yao […], et al. Reducing Jagged 1 and 2 levels prevents cerebral arteriovenous malformations in matrix Gla protein deficiency. Proc Nat Acad Sci USA. 2013; 110(47):19071-19076). provided by Dr. Yucheng Yao (UCLA, Los Angeles) and mated to obtain the appropriate genotypes. Only about 10-15% of each litter were born with the Mgp^-/- genotype, and among those, only about 45% survived until the end of the treatment and/or the imaging of the brain vasculature, due to the extreme severity of the disease in this mouse model. These animals not only suffer AVMs in the brain, but all major organs are also affected and dysfunctional. Thus, […] might die due to several causes, including stroke, severe lung inflammation that causes respiratory failure-especially when anesthesia is used-, organ failure due to liver and/or spleen malfunction, heart failure, etc., drastically limiting the number of the Mgp^-/- mice available for the CTA studies. […] Treatment with 0.08 nmol/mouse of miR-18a or scramble microRNA was administered IN daily for 2-weeks. 2.5 μL/nostril were delivered in RNase-free water. Ultra-high-resolution in vivo computed tomography angiography (CTA) was performed in mice for 3D imaging of whole brain vascular architecture^18, ([…], Rendon D, et al. Ultra-High-Resolution In vivo Computed Tomography Imaging of Mouse Cerebrovasculature Using a Long Circulating Blood Pool Contrast Agent. Scientific reports. 2015; 5:10178) as described in Data. The vascular data was quantified using ImageJ. Regions of interest encompassing the Circle of Willis (CoW) and the azygous of the anterior cerebral artery (AzACA) and its branches were selected in CT images using thick slab maximum intensity projection (MIP) or 3D volume rendering. The images were converted to 8-bit grayscale and thresholded to highlight the vasculature containing pixels. The pixels were analyzed as particles and normalized to results from the wildtype mice (WT, Mgp^+/+). Immediately after imaging, mice were euthanized, and brains were frozen in Clear Frozen Section Compound (VWR) and stored at -80° C. Blood was collected for complete blood count (Antech). The lungs, livers, spleens, femurs, and kidneys were harvested and fixed in 10% formalin. Photographs of the stained sections were captured using an Eclipse 80i microscope (Nikon)."}}, "data": [{"substance": "hsa-miR-18a-5p (UAGGUGCAUCUAGUGCAGAUAG; chemistry not given here; listed as Homo sapiens) [small non-coding RNA molecule involved in post-transcriptional regulation of gene expression; Dharmacon]", "values": [{"measurement": "ALK1 mRNA expression", "setting": "BEC; P=0.0482", "result": "decreased"}, {"measurement": "BMP4, ALK2, ALK5 and MGP mRNA expression", "setting": "BEC; P>0.05", "result": "No significant differences"}, {"measurement": "HIF-1α expression", "setting": "BEC; hypoxia 3% O2", "result": "remained unaltered"}, {"measurement": "HIF-1α expression", "setting": "BEC; normoxia, P>0.9999", "result": "without affecting BEC"}, {"measurement": "bone marrow phenotype (adipose cells, megakaryocytes)", "setting": "[1]", "result": "normalized"}, {"measurement": "macrophages in alveoli, lung inflammation", "setting": "[1]", "result": "not present"}, {"measurement": "polychromasia", "setting": "[1]", "result": "minimal or not present"}, {"measurement": "spleens, macroscopic, compared with Mgp^+/+ and Mgp^−/+", "setting": "[1]", "result": "comparable"}, {"measurement": "blood levels of hematocrit (HCT)", "setting": "[1]; n=3", "result": "normalized"}, {"measurement": "blood levels of hemoglobin (HGB)", "setting": "[1]; n=3", "result": "normalized"}, {"measurement": "blood levels of red blood cells (RBC)", "setting": "[1]; n=3", "result": "normalized"}]}]}
